Measurements reported in the supplement of paper PMC10627819.

Experiments:
Assay in all cases: Bliss interaction score (quartile over a dose matrix) (fitness difference); higher = more antagonism (negative = synergy)
S. pneumoniae D39V = system: S. pneumoniae D39V
Method in brief: (§1)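 At entry into stationary phase, OD595 was recorded and divided by the robust mean of the no-drug wells on that plate, with any value above 1 set to 1. This gives the fitness measure used throughout. Single-drug fitness was inferred from combination data, and the Bliss score, observed minus product-expected fitness, is shown as quartiles across technical, biological and donor/recipient replicates.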

B. subtilis 168 = system: B. subtilis 168
Method in brief: as §1

S. aureus DSM 20231 = system: S. aureus DSM 20231
Method in brief: as §1

S. aureus Newman = system: S. aureus Newman
Method in brief: as §1
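Also: first quartile when negative (synergy) and third quartile when positive (antagonism).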

Row | SMILES | Bliss interaction score (S. pneumoniae D39V) | Bliss interaction score (B. subtilis 168) | Bliss interaction score (S. aureus DSM 20231) | Bliss interaction score (S. aureus Newman) | Bliss interaction score (S. pneumoniae D39V; main component drawn) | Bliss interaction score (B. subtilis 168; main component drawn) | Bliss interaction score (S. aureus DSM 20231; main component drawn) | Bliss interaction score (S. aureus Newman; main component drawn)
1 | CC(=O)O[C@H]1C[C@@]2(C)[C@@H](C[C@@H](O)[C@H]3[C@@]4(C)CC[C@@H](O)[C@@H](C)[C@@H]4CC[C@@]32C)/C1=C(\CCC=C(C)C)C(=O)O [Fusidic acid] + Oc1cc(Cl)ccc1Oc1ccc(Cl)cc1Cl [Triclosan] | 0.124 | 0.0422 | -0.0259 | 0.0305 |  |  |  | 
2 | CC(=O)O[C@H]1C[C@@]2(C)[C@@H](C[C@@H](O)[C@H]3[C@@]4(C)CC[C@@H](O)[C@@H](C)[C@@H]4CC[C@@]32C)/C1=C(\CCC=C(C)C)C(=O)O [Fusidic acid] + C[C@@H](O)[C@H]1C(=O)N2C(C(=O)O)=C(SCCNC=N)C[C@H]12 [Imipenem] | 0.0477 | 0.138 | 0.0208 | 0.0214 |  |  |  | 
3 | O=C(N[C@H](CO)[C@H](O)c1ccc([N+](=O)[O-])cc1)C(Cl)Cl [Chloramphenicol] + C[C@H]1c2cccc(O)c2C(=O)C2=C(O)[C@]3(O)C(=O)C(C(N)=O)=C(O)[C@@H](N(C)C)[C@@H]3[C@@H](O)[C@@H]21 [Doxycycline] | -0.06 | -0.0915 | 0.0395 | 0.0197 |  |  |  | 
4 | O=C(N[C@H](CO)[C@H](O)c1ccc([N+](=O)[O-])cc1)C(Cl)Cl [Chloramphenicol] + CC[C@H]1OC(=O)[C@H](C)[C@@H](O[C@H]2C[C@@](C)(OC)[C@@H](O)[C@H](C)O2)[C@H](C)[C@@H](O[C@@H]2O[C@H](C)C[C@H](N(C)C)[C@H]2O)[C@](C)(OC)C[C@@H](C)C(=O)[C@H](C)[C@@H](O)[C@]1(C)O [Clarithromycin] | 0.0359 | -0.0459 | -0.158 | -0.129 |  |  |  | 
5 | CC(=O)O[C@H]1C[C@@]2(C)[C@@H](C[C@@H](O)[C@H]3[C@@]4(C)CC[C@@H](O)[C@@H](C)[C@@H]4CC[C@@]32C)/C1=C(\CCC=C(C)C)C(=O)O [Fusidic acid] + CC(=O)NC[C@H]1CN(c2ccc(N3CCOCC3)c(F)c2)C(=O)O1 [Linezolid] | -0.1 | -0.141 | -0.0285 | -0.0198 |  |  |  | 
6 | CC(=O)OC[C@H]1O[C@@H]([S-])[C@H](OC(C)=O)[C@@H](OC(C)=O)[C@@H]1OC(C)=O.CCP(CC)CC.[Au+] [Auranofin] + CO[C@@]12[C@H](COC(N)=O)C3=C(C(=O)C(C)=C(N)C3=O)N1C[C@@H]1N[C@@H]12 [MitomycinC] | -0.126 | 0.0315 | -0.0435 | 0.0961 |  |  |  | 
7 | C/C(=C\C(=O)OCCCCCCCCC(=O)O)C[C@@H]1OC[C@H](C[C@@H]2O[C@H]2[C@@H](C)[C@H](C)O)[C@@H](O)[C@H]1O [Pseudomonic acid] + COc1cc(Cc2cnc(N)nc2N)cc(OC)c1OC [Trimethoprim] | -0.143 | 0.0595 | 0.0182 | 0.0264 |  |  |  | 
8 | CC(=O)OC[C@H]1O[C@@H]([S-])[C@H](OC(C)=O)[C@@H](OC(C)=O)[C@@H]1OC(C)=O.CCP(CC)CC.[Au+] [Auranofin] + CC(C1CCC(C(O1)OC2C(CC(C(C2O)OC3C(C(C(CO3)(C)O)NC)O)N)N)N)NC [Gentamicin] |  |  |  |  | -0.0834 | -0.0544 | 0.0359 | 0.0898
9 | CC(=O)O[C@H]1C[C@@]2(C)[C@@H](C[C@@H](O)[C@H]3[C@@]4(C)CC[C@@H](O)[C@@H](C)[C@@H]4CC[C@@]32C)/C1=C(\CCC=C(C)C)C(=O)O [Fusidic acid] + CO[C@@H]1[C@@H](OC(N)=O)[C@@H](O)[C@H](Oc2ccc3c(O)c(NC(=O)c4ccc(O)c(CC=C(C)C)c4)c(=O)oc3c2C)OC1(C)C [Novobiocin] | -0.153 | 0.0723 | 0.0249 | 0.0521 |  |  |  | 
10 | CC(=O)O[C@H]1C[C@@]2(C)[C@@H](C[C@@H](O)[C@H]3[C@@]4(C)CC[C@@H](O)[C@@H](C)[C@@H]4CC[C@@]32C)/C1=C(\CCC=C(C)C)C(=O)O [Fusidic acid] + COc1c(N2C[C@@H]3CCCN[C@@H]3C2)c(F)cc2c(=O)c(C(=O)O)cn(C3CC3)c12 [Moxifloxacin] | 0.048 | 0.0398 | 0.0361 | 0.0453 |  |  |  | 
11 | N[C@@H]1CONC1=O [CycloserineD] + CCC[C@@H]1C[C@@H](C(=O)N[C@@H]([C@H]2O[C@H](SC)[C@H](O)[C@@H](O)[C@H]2O)[C@@H](C)O)N(C)C1 [Lincomycin] | 0.153 | -0.0375 | -0.146 | 0.102 |  |  |  | 
12 | CC(=O)O[C@H]1C[C@@]2(C)[C@@H](C[C@@H](O)[C@H]3[C@@]4(C)CC[C@@H](O)[C@@H](C)[C@@H]4CC[C@@]32C)/C1=C(\CCC=C(C)C)C(=O)O [Fusidic acid] + COc1cc(Cc2cnc(N)nc2N)cc(OC)c1OC [Trimethoprim] | -0.0871 | 0.112 | 0.0265 | 0.0427 |  |  |  | 
13 | CC(=O)OC[C@H]1O[C@@H]([S-])[C@H](OC(C)=O)[C@@H](OC(C)=O)[C@@H]1OC(C)=O.CCP(CC)CC.[Au+] [Auranofin] + COc1cccc2c1C(=O)c1c(O)c3c(c(O)c1C2=O)C[C@@](O)(C(=O)CO)C[C@@H]3O[C@H]1C[C@H](N)[C@H](O)[C@H](C)O1 [Doxorubicin] | -0.0943 | 0.0674 | -0.0288 | 0.112 |  |  |  | 
14 | CC(=O)OC[C@H]1O[C@@H]([S-])[C@H](OC(C)=O)[C@@H](OC(C)=O)[C@@H]1OC(C)=O.CCP(CC)CC.[Au+] [Auranofin] + CN(C)c1cc(NC(=O)CNC(C)(C)C)c(O)c2c1C[C@H]1C[C@H]3[C@H](N(C)C)C(O)=C(C(N)=O)C(=O)[C@@]3(O)C(O)=C1C2=O [Tigecycline] | 0.0966 | 0.0508 | -0.0332 | -0.066 |  |  |  | 
